Drawing on BigSolDB 2.1, this text covers solubility (mole fraction) for five molecules.

For this series the following is noted: in water.

For `Nc1ccc(S(=O)(=O)Nc2ncccn2)cc1`, the solubility (mole fraction) (in general, solubility expressed as the solute's share of all molecules) runs as follows: (298.15 K) 4.82e-06; (303.15 K) 6.2e-06; (308.15 K) 8.23e-06; (313.15 K) 1.05e-05; (318.15 K) 1.33e-05; (323.15 K) 1.7e-05. Moreover, the solubility (mole fraction) runs as follows: (328.15 K) 2.1e-05; (333.15 K) 2.62e-05.
Take `COc1cc(NS(=O)(=O)c2ccc(N)cc2)ncn1`: the solubility (mole fraction) runs as follows: (298.15 K) 3.88e-06; (303.15 K) 4.9e-06; (308.15 K) 6.13e-06; (313.15 K) 7.65e-06; (318.15 K) 9.63e-06; (323.15 K) 1.17e-05. The molecule further displayed a solubility (mole fraction) (328.15 K) of 1.45e-05 and a solubility (mole fraction) (333.15 K) of 1.76e-05.
Turning to `COc1cc(NS(=O)(=O)c2ccc(N)cc2)nc(OC)n1`, the solubility (mole fraction) (298.15 K) was 3.07e-06; the solubility (mole fraction) (303.15 K) worked out at 3.83e-06; the solubility (mole fraction) (308.15 K) was 4.78e-06; the solubility (mole fraction) (313.15 K) was 5.83e-06; the solubility (mole fraction) (318.15 K) was found to be 7.25e-06; the solubility (mole fraction) (323.15 K) is 8.76e-06. Moreover, the solubility (mole fraction) came to 1.05e-05 (328.15 K) and 1.28e-05 (333.15 K).
Turning to `COc1cnc(NS(=O)(=O)c2ccc(N)cc2)nc1`, the solubility (mole fraction) is, setting by setting: (298.15 K) 5.52e-06; (303.15 K) 7.19e-06; (308.15 K) 9.26e-06; (313.15 K) 1.17e-05; (318.15 K) 1.48e-05; (323.15 K) 1.88e-05. Moreover, the solubility (mole fraction) (328.15 K) amounted to 2.34e-05 and the solubility (mole fraction) (333.15 K) was 2.92e-05.
Turning to `Nc1ccc(S(=O)(=O)[N-]c2cncc(Cl)n2)cc1.[Na+]`, the solubility (mole fraction) runs as follows: (298.15 K) 1.12e-05; (303.15 K) 1.35e-05; (308.15 K) 1.59e-05; (313.15 K) 1.91e-05; (318.15 K) 2.3e-05; (323.15 K) 2.75e-05. In addition, the solubility (mole fraction) reads like this: (328.15 K) 3.28e-05; (333.15 K) 3.91e-05.
